Source: patent US8377967B2, “Piperidine derivative” (Nippon Zoki Pharmaceutical Co., Ltd., priority 2008, dated 2013)
pIC50: −log10 of the molar value.

How the values were obtained:
[1] = biological target: human histamine H1 receptor (Homo sapiens, UniProt P35367); experiment: In vitro human histamine H1 receptor binding experiment ([3H]pyrilamine); details: HEK293A cells stably expressing human histamine H1 receptor, [3H]pyrilamine 3 nmol/L, room temperature 60 minutes
Protocol: Recombinant human histamine H1 receptor plasmid (prepared by Invitrogen) was transfected to HEK293A cells with Lipofectamine 2000 (manufactured by Invitrogen). Cells stably expressing human histamine H1 receptor were screened with Geneticin (manufactured by Invitrogen). The cells were continued to be cultured using a Dulbecco's Modified Eagle Medium containing 10% fetal bovine serum, 0.1 mmol/L MEM Non-Essential Amino Acids Solution, 2 mmol/L L-glutamine and 0.7 mg/mL Geneticin in a 5% CO2 incubator at 37° C. The cells stably expressing human histamine H1 receptor were prepared using 50 mmol/L Tris-HCl (pH 7.5) (hereinafter referred to as buffer) containing 0.1% bovine serum albumin, so as to have a concentration of 3×10^6 cells/mL, to give a cell sample preparation. Fifty microliters of the buffer, 50 μl of a test substance solution at various concentrations, and 50 μL of [^3H]pyrilamine solution (final concentration: 3 nmol/L) were added to each of the wells on the 96-well plate, and stirred, and 100 μL of the cell sample preparation was then added thereto (at a concentration of 3×10^5 cells/well) to initiate the reaction.
The cells were incubated at room temperature for 60 minutes, and then filtered on UniFilter GF/C plate (manufactured by Packard) immersed in 0.5% polyethyleneimine using a cell harvester (IH-110, manufactured by INNOTECH CORPORATION), to stop the reaction, and the plate was washed with the buffer. The plate after washing was sufficiently dried, and 20 μL of a scintillator (MaxiLight, manufactured by Hidex) was added thereto, and count per minute (cpm) was measured with a multi-labeled microplate reader (Plate Chameleo II, manufactured by Hidex). The nonspecific binding was cpm in a case where 30 μmol/L pyrilamine was added. The experiments were carried out at n=3, and at least repeated 3 times.

[2] = system: histamine-induced vascular hyperpermeability reaction; experiment: Rat histamine-induced vascular hyperpermeability reaction (in vivo antihistamine action); details: SD male rat, oral administration 1 hour before intracutaneous histamine, leaked Evans Blue pigment
Protocol: An SD male rat (SPF) of 180 g in weight was previously fed for one week or more by allowing the rat to take a solid feed and tap water ad libitum, under the environment setting of a temperature of 22° C., humidity of 55% and an artificial illumination of 12 hours a day (light phase 8 am to 8 pm), and the rat was fasted overnight to be used for the experiment. Histamine•dihydrochloride (hereinafter referred to as histamine) and Evans Blue were used by dissolving each in physiological saline upon use. A substance to be tested was dissolved in water for injection or suspended in 0.5% carboxymethyl cellulose sodium, and the rat was orally administered with the solution or suspension (dose volume: 5 mL/kg body weight). After 1 hour from the administration, the physiological saline and the histamine solution were each intracutaneously injected to two locations (20 μg/0.05 ml/location) each on a back part of the rat of which hair was sheared with an electric clipper while anesthetizing with an ether. A 0.5% Evans Blue-containing physiological saline was injected intravenously to the tail of the rat (1 mL/200 g body weight) immediately before the intracutaneous injection of the histamine.
After 30 minutes, the animal was decapitated, and allowed to bleed lethally, and the skin was removed to measure an amount of leaked pigment in the blue-stained portion. The measurement of the amount of leaked pigment was carried out as follows. Skins of the pigment leaking site were cut out at two locations, 1 mL of a 2 mol/L aqueous potassium hydroxide solution was added thereto in a test tube, and the test tube was allowed to stand overnight at 37° C. to dissolve. Thereafter, 6 mL of a 1:3 mixed solution of 0.67 mol/L phosphoric acid and acetone was added to the solution, and the mixture was vigorously shaken for 10 minutes. Thereafter, the mixture was filtered, and the absorbance of the filtrate at 620 nm was measured. The absorbance obtained from the two locations of the sites injected with physiological saline, as blank value, was used for a compensation. The amount of leaked pigment was calculated from the calibration curve of Evans Blue at 620 nm.

cerebral H1 receptor = biological target: T1, cerebral H1 receptor (Mus musculus, UniProt P70174); experiment: Murine cerebral H1 receptor occupying content (ex vivo); format: in vivo; details: for ED50: ICR male mouse, oral administration, brain excised after 1 hour, 3H-pyrilamine binding in brain homogenate, larger = lower brain transfer, read-out: ID50 (the source's name); for ID50 (mg/kg)/ ED50 (mg/kg): ID50 of cerebral receptor binding test (Table 20) divided by ED50 of vascular hyperpermeability test (Table 19)
T1 construct: the entire brain, except for cerebellum and medulla oblongatae, was rapidly excised; from tissue; host or cells: brain homogenate (without cerebellum and medulla oblongata) of orally dosed ICR male mice
Protocol: A 6-week-old ICR male mouse was previously fed for one week or more by allowing the mouse to take a solid feed and tap water ad libitum, under the environment setting of a temperature of 22° C., humidity of 55% and an artificial illumination of 12 hours a day, and the mouse was fasted overnight to be used for the experiment. A substance to be tested was dissolved with water for injection or suspended in 0.5% carboxymethyl cellulose solution, and the solution or suspension was orally administered to the mouse (dose volume: 0.1 mL/10 g body weight). After 1 hour from the oral administration, the mouse was decapitated, and the entire brain, except for cerebellum and medulla oblongatae, was rapidly excised. The excised brain tissue was homogenized with Polytron (manufactured by Kinematica) in an ice-cooled 50 mmol/L phosphate buffered saline (pH 7.4, 100 mg/1.9 mL).
To a test tube for reaction (TPX-Tube) were added 180 μL of the brain homogenate, and 10 μL of ^3H-pyrilamine solution (final concentration: 2 nmol/L) and 10 μL of a non-labeled pyrilamine solution (final concentration: 200 μmol/L) or a 50 mmol/L phosphate buffered saline, and the mixture was incubated at room temperature for 45 minutes, and 2.0 mL of an ice-cooled, 50 mmol/L phosphate buffered saline was then added thereto to stop the reaction. The reaction mixture was filtered with a GF/B filter (manufactured by […]), and the […] was placed in a vial and dried overnight at 60 degrees. After drying, 10 mL of a scintillator (AL-1, toluene-based, manufactured by DOJINDO LABORATORIES) was added to the product, and the disintegration per minute (dpm) was measured with a liquid scintillation counter (manufactured by Packard, U.S.A., TRI-CARB 2700TR) (5 minutes/vial).

T1 sequence (P70174 whole entry): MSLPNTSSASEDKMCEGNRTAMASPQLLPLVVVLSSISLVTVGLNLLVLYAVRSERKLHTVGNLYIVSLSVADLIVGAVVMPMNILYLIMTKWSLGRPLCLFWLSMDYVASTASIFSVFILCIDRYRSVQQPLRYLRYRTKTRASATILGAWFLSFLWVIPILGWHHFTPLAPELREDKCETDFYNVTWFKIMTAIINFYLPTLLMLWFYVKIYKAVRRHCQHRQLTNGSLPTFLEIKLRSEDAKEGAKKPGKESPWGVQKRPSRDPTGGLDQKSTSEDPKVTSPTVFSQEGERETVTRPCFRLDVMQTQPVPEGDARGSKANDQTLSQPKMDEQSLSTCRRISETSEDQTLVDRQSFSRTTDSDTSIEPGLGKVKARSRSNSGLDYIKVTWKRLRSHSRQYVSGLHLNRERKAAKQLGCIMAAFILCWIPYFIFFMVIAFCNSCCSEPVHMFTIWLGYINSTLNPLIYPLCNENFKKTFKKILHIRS
Chain of human histamine H1 receptor (P35367 whole entry): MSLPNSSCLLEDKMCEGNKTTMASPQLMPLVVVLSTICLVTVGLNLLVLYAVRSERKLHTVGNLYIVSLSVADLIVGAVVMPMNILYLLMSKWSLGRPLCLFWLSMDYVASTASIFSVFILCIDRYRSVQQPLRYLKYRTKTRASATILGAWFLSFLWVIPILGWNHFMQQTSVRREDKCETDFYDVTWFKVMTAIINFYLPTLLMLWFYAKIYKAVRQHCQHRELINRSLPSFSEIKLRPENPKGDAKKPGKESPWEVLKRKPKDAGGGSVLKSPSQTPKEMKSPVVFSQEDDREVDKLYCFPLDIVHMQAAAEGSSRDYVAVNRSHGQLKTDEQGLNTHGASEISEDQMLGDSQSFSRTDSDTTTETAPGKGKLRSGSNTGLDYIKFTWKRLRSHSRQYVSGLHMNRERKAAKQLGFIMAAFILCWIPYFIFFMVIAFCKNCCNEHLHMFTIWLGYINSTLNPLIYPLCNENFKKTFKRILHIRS

## COC(=O)Cc1ccc2c(c1)C(=C1CCN(CCC(C)=O)CC1)c1sccc1CO2.Cl [Compound 191, Methyl {4-[1-(3-oxobutyl)piperidin-4-ylidene]-4,10-dihydro-9-oxa-3-thiabenzo[f]azulen-6-yl}acetate hydrochloride]
[1]
  pIC50: 8.33
[2]
  ED50: 0.597 mg/kg
Cerebral H1 receptor
  ED50: 79.2 mg/kg
  ID50 (mg/kg)/ ED50 (mg/kg): 132.7

## CCN1CCC(=C2c3cc(CC(=O)OC)ccc3OCc3ccsc32)CC1.Cl [Compound 127, Methyl[4-(1-ethylpiperidin-4-ylidene)-4,10-dihydro-9-oxa-3-thiabenzo[f]azulen-6-yl]acetate hydrochloride]
[1]
  pIC50: 8.09
[2]
  ED50: ~0.1 mg/kg
Cerebral H1 receptor
  ED50: 9.84 mg/kg
  ID50 (mg/kg)/ ED50 (mg/kg): 98.4

## CN1CCC(=C2c3ccccc3CCc3sc(CNC(N)=O)cc32)CC1 [Compound 49, 2-Ureidomethyl-4-(1-methylpiperidin-4-ylidene)-9,10-dihydro-4H-1-thiabenzo[f]azulene]
[1]
  pIC50: 7.49
[2]
  ED50: ~1 mg/kg
Cerebral H1 receptor
  ED50: 33.9 mg/kg
  ID50 (mg/kg)/ ED50 (mg/kg): 33.9

## COC(=O)CSc1ccc2c(c1)C(=C1CCN(C)CC1)c1sccc1CO2.Cl [Compound 171, Methyl[4-(1-methylpiperidin-4-ylidene)-4,10-dihydro-9-oxa-3-thiabenzo[f]azulen-6-ylsulfanyl]acetate hydrochloride]
[1]
  pIC50: 8.38
[2]
  ED50: 0.073 mg/kg
Cerebral H1 receptor
  ED50: 29.6 mg/kg
  ID50 (mg/kg)/ ED50 (mg/kg): 405.5

## CCOC(=O)Cc1ccc2c(c1)C(=C1CCN(C)CC1)c1sccc1CO2.Cl [Compound 140, Ethyl[4-(1-methylpiperidin-4-ylidene)-4,10-dihydro-9-oxa-3-thiabenzo[f]azulen-6-yl]acetate hydrochloride]
[1]
  pIC50: 8.00
[2]
  ED50: ~0.01 mg/kg
Cerebral H1 receptor
  ED50: 3.5 mg/kg
  ID50 (mg/kg)/ ED50 (mg/kg): 350.0

## COC(=O)Cc1ccc2c(c1)C(=C1CCN(CCCSC)CC1)c1sccc1CO2.Cl [Compound 198, Methyl {4-[1-(3-methylsulfanylpropyl)piperidin-4-ylidene]-4,10-dihydro-9-oxa-3-thiabenzo[f]azulen-6-yl}acetate hydrochloride]
[1]
  pIC50: 9.23
[2]
  ED50: ~0.3 mg/kg
Cerebral H1 receptor
  ED50: 22.1 mg/kg
  ID50 (mg/kg)/ ED50 (mg/kg): 73.7

## COC(=O)COc1ccc2c(c1)C(=C1CCN(C)CC1)c1sccc1CO2.Cl [Compound 165, Methyl[4-(1-methylpiperidin-4-ylidene)-4,10-dihydro-9-oxa-3-thiabenzo[f]azulen-6-yloxy]acetate hydrochloride]
[1]
  pIC50: 7.93
[2]
  ED50: 0.107 mg/kg
Cerebral H1 receptor
  ED50: 23 mg/kg
  ID50 (mg/kg)/ ED50 (mg/kg): 215.0

## CCOC(=O)CCN1CCC(=C2c3cc(CC(=O)OC)ccc3OCc3ccsc32)CC1.Cl [Compound 173, Ethyl 3-[4-(6-methoxycarbonylmethyl-10H-9-oxa-3-thiabenzo[f]azulen-4-ylidene)piperidin-1-yl]propionate hydrochloride]
[1]
  pIC50: 8.90
[2]
  ED50: 1.43 mg/kg
Cerebral H1 receptor
  ED50: 87.1 mg/kg
  ID50 (mg/kg)/ ED50 (mg/kg): 60.9

## CN1CCC(=C2c3ccccc3CCc3sc(C(=O)NCCO)cc32)CC1 [Compound 27, N-(2-Hydroxyethyl) [4-(1-methylpiperidin-4-ylidene)-9,10-dihydro-4H-1-thiabenzo[f]azulen-2-yl]carboxamide]
[1]
  pIC50: 7.28
[2]
  ED50: 1.63 mg/kg
Cerebral H1 receptor
  ED50: 55.1 mg/kg
  ID50 (mg/kg)/ ED50 (mg/kg): 33.8

## CCOC(=O)C=Cc1cc2c(s1)CCc1ccccc1C2=C1CCNCC1.Cl [Compound 145, Ethyl 3-(4-piperidin-4-ylidene-9,10-dihydro-4H-1-thiabenzo[f]azulen-2-yl)acrylate hydrochloride]
[1]
  pIC50: 7.16
[2]
  ED50: 0.29 mg/kg
Cerebral H1 receptor
  ED50: > 200 mg/kg
  ID50 (mg/kg)/ ED50 (mg/kg): >689.7

## CC(=O)CN1CCC(=C2c3cc(CC(=O)O)ccc3OCc3ccsc32)CC1 [Compound 168, {4-[1-(2-Oxopropyl)piperidin-4-ylidene]-4,10-dihydro-9-oxa-3-thiabenzo[f]azulen-6-yl}acetic acid]
[2]
  ED50: 0.264 mg/kg
Cerebral H1 receptor
  ED50: 10.4 mg/kg
  ID50 (mg/kg)/ ED50 (mg/kg): 39.4

## CCN1CCC(=C2c3ccccc3CCc3sc(C(C)(C)C(=O)O)cc32)CC1 [Compound 155, 2-[4-(1-Ethylpiperidin-4-ylidene)-9,10-dihydro-4H-1-thiabenzo[f]azulen-2-yl]-2-methylpropionic acid]
[2]
  ED50: 0.334 mg/kg
Cerebral H1 receptor
  ED50: 66.6 mg/kg
  ID50 (mg/kg)/ ED50 (mg/kg): 199.4

## CC(=O)CCCN1CCC(=C2c3cc(CCCC(=O)O)ccc3OCc3ccsc32)CC1 [Compound 188, 4-{4-[1-(4-Oxopentyl)piperidin-4-ylidene]-4,10-dihydro-9-oxa-3-thiabenzo[f]azulen-6-yl}butyric acid]
[2]
  ED50: ~0.3 mg/kg
Cerebral H1 receptor
  ED50: 23 mg/kg
  ID50 (mg/kg)/ ED50 (mg/kg): 76.7

## O=C(O)Cc1ccc2c(c1)C(=C1CCN(CCO)CC1)c1sccc1CO2 [Compound 119, {4-[1-(2-Hydroxyethyl)piperidin-4-ylidene]-4,10-dihydro-9-oxa-3-thiabenzo[f]azulen-6-yl}acetic acid]
[2]
  ED50: 1.1 mg/kg
Cerebral H1 receptor
  ED50: 74.5 mg/kg
  ID50 (mg/kg)/ ED50 (mg/kg): 67.7

## CCN1CCC(=C2c3ccccc3CCc3sc(C(=O)O)cc32)CC1.Cl [Compound 108, [4-(1-Ethylpiperidin-4-ylidene)-9,10-dihydro-4H-1-thiabenzo[f]azulen-2-yl]carboxylic acid hydrochloride]
[2]
  ED50: 1.16 mg/kg
Cerebral H1 receptor
  ED50: 110 mg/kg
  ID50 (mg/kg)/ ED50 (mg/kg): 95.3

## COC(=O)Cc1ccc2c(c1)C(=C1CCNCC1)c1sccc1CO2.Cl [Compound 126, Methyl (4-piperidin-4-ylidene-4,10-dihydro-9-oxa-3-thiabenzo[f]azulen-6-yl)acetate hydrochloride]
[2]
  ED50: 0.446 mg/kg
Cerebral H1 receptor
  ED50: 237 mg/kg
  ID50 (mg/kg)/ ED50 (mg/kg): 530.7

## CN1CCC(=C2c3ccccc3CCc3sc(C(C)(C)C(=O)O)cc32)CC1 [Compound 65, 2-Methyl-2-[4-(1-methylpiperidin-4-ylidene)-9,10-dihydro-4H-1-thiabenzo[f]azulen-2-yl]propionic acid]
[2]
  ED50: 0.14 mg/kg
Cerebral H1 receptor
  ED50: 19.5 mg/kg
  ID50 (mg/kg)/ ED50 (mg/kg): 139.3
